In assay [1] the test system is serotonin aptamers. Briefly: specificity test of the aptamers: MDMA spiked in control sample in the absence of brain slice (rig bath). In kind it is binding. The settings on record: excess of MDMA (30 μM), no brain slice, oxygenated aCSF 37° C., 3 ml/min. As for the experimental part: The stability of the fluorescence signal over time is characterized in a bath system (rig) under the appropriate conditions favorable for live brain slice measurements. This includes keeping the temperature of the bath at 37° C., with oxygenated artificial CSF (aCSF) flown in the chamber at a rate of 3 ml/min. A stable fluorescence signal (counts) was observed over tens of minutes under continuous laser excitation, which confirmed the robustness of the aptamers, fluorophores and the surface under such conditions. To test the specificity of the aptamers, an excess of MDMA (30 μM) was spiked in a control sample in the absence of brain slice.

Assay [2] has as its system live brain slices (nucleus accumbens). Nature of the assay: optical fiber sensor in live brain slices, endogenous release of serotonin upon MDMA stimulation. In kind it is cell-based, mouse. The settings on record: following infusion of MDMA for 10 minutes; 532 nm excitation; NAc. Also on record: dose or concentration left out as unconfirmed. The text has this:
According to some embodiments, to measure endogenous release of DA and 5-HT upon drug (MDMA) stimulation with the optical biosensor in live brain slices, a rig system and a brain slice recording chamber are installed in a lab with all the necessary components, including: a gravity-perfusion system alimented by peristatic pump, temperature controller, oxygen lines, microscope, camera and micro-stage. It was noted that black curtains covering the entire rig system were necessary to minimize the background and fluctuations from room-light.
Initially, the optical fiber was successfully inserted in a brain slice without compromising or breaking the micron-size tip of the optical fiber. However, due to mechanical contact, the fluorescence signal was mostly lost during the insertion process. Subsequently, the fiber was protected by a capillary tube from mechanical breakage during the transfer processes onto the rig holder and bath. […]
After confirming the sensitivity, robustness, and specificity of the aptamer sensor in the rig system, test measurements were performed with live brain slices. […] After approximately 10 minutes of baseline measurements (aCSF) to determine the stability of the fluorescence signal in the brain environment over time and estimate the photobleaching rate, drug infusion at […] was started for 10 minutes. […]

The test system of assay [3] is serotonin aptamers. Nature of the assay: real-time measurement with one-color optical biosensor system, fiber-tethered signal-off serotonin aptamer switch. The settings on record: specificity of 5-HT signal-off aptamer optical probe towards other molecules. Type of assay: binding. From the text: In some embodiments, the optical biosensor system was used to measure other molecules, such as dopamine (DA) and serotonin ([…]). The aptamers for DA and 5-TH are converted into aptamer-switches. (See, e.g., Nakatsuka et al., Aptamer-field-effect Transistors Overcome Debye Length Limitations for Small-molecule Sensing, Science 362: 319-324 (2018).) Higher sensitivity and better photostability were achieved through improvements in detector alignment.
To evaluate the performance of the optical biosensor system in a biological matrix, spiked concentration of 5-HT and DA in an artificial cerebrospinal fluid (aCSF) or a cerebrospinal fluid (CSF), and in brain slices mediums were measured using a one-color optical biosensor system.
The optical biosensor system 2400 includes a laser source 2410, an optical beam splitter 2420, and a detector 2430. The optical biosensor system 2400 may include an optional battery for providing power to the laser source 2410 and the detector 2430. […]
Molecular switches (not shown) are attached to the second end 2466 of the optical waveguide 2462. […] When target molecules, such as dopamine or serotonin, bind to the molecular switches, the molecular switches may emit fluorescence light. The fluorescence light may have a second wavelength that is longer than the first wavelength of the excitation light. The emitted fluorescence light may be coupled back into the optical waveguide 2462 through the second end 2466 and be propagated through the optical waveguide 2462 to be emitted from the first end 2464.
The fluorescence light emitted from the […] of the optical waveguide 2462 may be collimated by the lens 2440 and incident on the optical beam splitter 2420. The optical beam splitter 2420 is configured to transmit the fluorescence light. In some embodiments, the optical beam splitter 2420 may be a dichroic beam splitter configured to have a high reflectance value for the first wavelength of the excitation light, and a high transmittance value for the second wavelength of the fluorescence light. […]

On to `CNC(C)Cc1ccc2c(c1)OCO2` (centres unmarked) [MDMA], for which the “change in the fluorescence signal” value with serotonin aptamers [1] was “Minimal change”. For the same compound, the “fluorescence intensity, red channel (Cy5) and green channel (Cy3)” value in assay [2] is given as “clear drop in the fluorescence intensity”.

On to `NCCc1ccc(O)c(O)c1` [dopamine], for which, in the assay on serotonin aptamers [3], the “sensor responses (fluorescence signal)” value is “negligible”.

On to `O=C(O)Cc1c[nH]c2ccc(O)cc12` [5-hydroxyindoleacetic acid], for which, in the assay on serotonin aptamers [3], the “sensor responses (fluorescence signal)” value is “negligible”.

`CNC[C@H](O)c1ccc(O)c(O)c1` [epinephrine]: the “sensor responses (fluorescence signal)” value in the assay with serotonin aptamers [3] is listed as “negligible”.

The values are drawn from patent US12710369B2, “Optical real-time biosensor” (CZ Biohub SF, LLC, priority 2018, dated 2026).
